Measured values: patent US4339576A, “Anti-asthmatic, anti-allergic, anti-cholinergic, bronchodilator and anti-inflammatory 1-[(benzoylphenyl)-lower-alkyl]piperidines and analogs thereof” (Sterling Drug Inc., priority 1981, dated 1982)
Counter-ions that a name gives are not always drawn. Like-named read-outs stand apart in the source and are kept apart here.

Key:
[1] = Toxicity observations in the carrageenin edema test; type: in vivo; conditions: C.E. test, .324 millimoles/kg, oral, rats; for dead: animals dead
Experimental: Anti-inflammatory activity was determined using (1) the inhibition of carrageenin-induced foot edema test described by Winter et al., Proc. Soc. […] Therap. […] J. Vet.
All data were obtained on oral administration in rats.

[2] = test system: carrageenin-induced foot edema; assay: Inhibition of carrageenin-induced foot edema (C.E.); type: in vivo, rats; conditions: Rattus norvegicus, read-out: percent inhibition, C.E.
[3] = test system: adjuvant-induced arthritis; assay: Inhibition of adjuvant-induced arthritis (A.A.); type: in vivo; conditions: Rattus norvegicus, oral, rats, read-out: percent inhibition, A.A.; for inhibition in vivo at 80 µmol/kg: .08 millimoles/kg; for inhibition in vivo at 40 µmol/kg: .04 millimoles/kg; for inhibition in vivo at 324 µmol/kg: .324 millimoles/kg
[4] = test system: passive cutaneous anaphylaxis; assay: Passive cutaneous anaphylaxis test (PCA); type: in vivo; parameters: key: Actv.: active; Weak: weakly active; Inac.: inactive; conditions: rats
[5] = test system: acetylcholine-induced abdominal constriction; assay: Acetylcholine-induced abdominal constriction test (Ach); type: in vivo, mice; conditions: Mus musculus
bradykinin = assay: Anti-bradykinin test (BDK); type: in vivo; conditions: po
[6] = test system: histamine induced bronchoconstriction; assay: Histamine induced bronchoconstriction test in anesthetized dogs; type: in vivo; conditions: intraduodenally; for ED40: Canis lupus familiaris, intraduodenal, read-out: AED40 (Approximate Effective Dose resulting in 40% inhibition of bronchoconstriction)
human basophils = assay: In vitro histamine release from human basophils test; type: cell-based; conditions: for EC50: read-out: AEC50 (Approximate Effective Concentration resulting in 50% inhibition of allergic release of histamine)
[7] = test system: guinea pig tracheal contractions by barium; assay: Relaxation of guinea pig tracheal contractions by barium; conditions: guinea pig trachea
[8] = test system: guinea pig tracheal contractions by carbachol; assay: Relaxation of guinea pig tracheal contractions by carbachol; conditions: guinea pig trachea, read-out: EC50 (effective concentration to produce 50% relaxation), Carb

SMILES	inhibition in vivo at 80 µmol/kg ([2]; .08 millimoles/kg, oral, rats) [%]	inhibition in vivo at 324 µmol/kg ([2]; .324 millimoles/kg, oral, rats) [%]	inhibition in vivo at 80 µmol/kg [3] [%]	PCA activity (qualitative statement) [4]	ED50 ([5]; po) [mg/kg]	further results
CC(C(=O)N1CCC(CN2CCCCC2)CC1)c1cccc(C(=O)c2ccccc2)c1 (stereo not drawn) [Example 1A, 1-[α-(3-benzoylphenyl)propionyl]-4-(1-piperidinylmethyl)piperidine]	14	–	–	–	–	Toxic (result in words) [1]: Toxic; dead [1]: 6/8
CC(C(=O)N1CCCCC1CN1CCOCC1)c1cccc(C(=O)c2ccccc2)c1 (stereo not drawn) [Example 1B, 1-[α-(3-Benzoylphenyl)propionyl]-2-(4-morpholinylmethyl)piperidine hydrochloride]	9	67	0	–	–	–
CC(C(=O)N1CCC(CN2CCOCC2)CC1)c1cccc(C(=O)c2ccccc2)c1 (stereo not drawn) [Example 1C, 1-[α-(3-Benzoylphenyl)propionyl]-4-(4-morpholinylmethyl)piperidine hydrochloride]	18	61	30	–	–	–
CC(C(=O)N1CCCC(CN2CCOCC2)C1)c1cccc(C(=O)c2ccccc2)c1.Cl (stereo not drawn) [Example 1D, 1-[α-(3-Benzoylphenyl)propionyl]-3-(4-morpholinylmethyl)piperidine hydrochloride]	0	65	37	Actv.	–	–
CC(C(=O)N1CCCCC1CN1CCCCC1)c1cccc(C(=O)c2ccccc2)c1 (stereo not drawn) [Example 1E, 1-[α-(3-Benzoylphenyl)propionyl]-2-(1-piperidinylmethyl)piperidine]	–	–	–	–	–	inhibition in vivo at 80 µmol/kg ([2]; po): 11%; inhibition in vivo at 324 µmol/kg ([2]; po): 67%
CC(C(=O)N1CCCC(CN2CCCCC2)C1)c1cccc(C(=O)c2ccccc2)c1 (stereo not drawn) [Example 1F, 1-[α-(3-Benzoylphenyl)propionyl]-3-(1-piperidinylmethyl)piperidine hydrochloride]	20	–	–	Actv.	–	Toxic (result in words) [1]: Toxic; dead [1]: 5/8
CC(CN1CCC(CN2CCCCC2)CC1)c1cccc(C(=O)c2ccccc2)c1 (stereo not drawn) [Example 2, 1-[2-(3-benzoylphenyl)propyl]-4-(1-piperidinylmethyl)piperidine dihydrochloride]	47	64	95	–	22	ED50 ([5]; sc): 11 mg/kg; ED50 (bradykinin): 24 mg/kg; inhibition in vivo at 20 µmol/kg ([3]; .02 millimoles/kg): 59%; inhibition in vivo at 40 µmol/kg [3]: 67%; inhibition in vivo at 324 µmol/kg [3]: 9%
CC(=O)NC1CCN(CC(C)c2cccc(C(=O)c3ccccc3)c2)CC1.Cl (stereo not drawn) [Example 3A, 1-[2-(3-benzoylphenyl)propyl]-4-acetylaminopiperidine hydrochloride]	29	58	75	–	3.6	ED50 (bradykinin): 24 mg/kg; dead [1]: 2/8
CC(CN1CCC(N2CCCCC2)CC1)c1cccc(C(=O)c2ccccc2)c1.Cl.Cl (stereo not drawn) [Example 3B, 1-[2-(3-Benzoylphenyl)propyl]-4-(1-piperidinyl)piperidine dihydrochloride]	67	74	–	–	7.4	ataxic ([1]; animals affected): 1/8; hypothermia ([1]; animals affected): 8/8; dead [1]: 1/8
CC(=O)NC1CCN(CC(C)c2ccc(C(=O)c3ccccc3)cc2)CC1.Cl.O (stereo not drawn) [Example 3C, 1-[2-(4-Benzoylphenyl)propyl]-4-acetylaminopiperidine hydrochloride monohydrate]	41	53	19	Inac.	5.6	ED40 [6]: ~5 mg/kg; EC50 (human basophils): > 10000 nM; ED50 (bradykinin): 46 mg/kg
CC(CN1CCC(N2CCCCC2)CC1)c1ccc(C(=O)c2ccccc2)cc1 (stereo not drawn) [Example 3D, 1-[2-(4-Benzoylphenyl)propyl]-4-(1-piperdinyl)piperidine dihydrochloride]	42	46	86	Inac.	29	AED40 (Approximate Effective Dose resulting in 40% inhibition of bronchoconstriction) [6]: Inac.; EC50 (human basophils): 90000 nM
CC(=O)N(C)C1CCN(CC(C)c2ccc(C(=O)c3ccccc3)cc2)CC1.Cl (stereo not drawn) [Example 3G, 1-[2-(4-Benzoylphenyl)propyl]-4-(N-acetyl-N-methylamino)piperidine hydrochloride]	–	–	–	–	–	Ba (active or inactive) [7]: Inact.; EC50 [8]: 340 nM
CC(c1cccc(C(=O)c2ccccc2)c1)N1CCC(CN2CCOCC2)CC1 (stereo not drawn) [Example 4A, 1-[1-(3-benzoylphenyl)ethyl]-4-(4-morpholinylmethyl)piperidine]	0	38	–	Actv.	–	ED40 [6]: > 30 mg/kg
CC(c1cccc(C(=O)c2ccccc2)c1)N1CCCCC1CN1CCOCC1.Cl.Cl (stereo not drawn) [Example 4B, 1-[1-(3-Benzoylphenyl)ethyl]-2-(4-morpholinylmethyl)piperidine dihydrochloride]	16	48	–	–	–	convulsions ([1]; animals affected at 15 min.): 2/8
CC(c1cccc(C(=O)c2ccccc2)c1)N1CCCC(CN2CCOCC2)C1 (stereo not drawn) [Example 4C, 1-[1-(3-Benzoylphenyl)ethyl]-3-(4-morpholinylmethyl)piperidine dihydrochloride monohydrate]	0	55	–	–	–	–
CC(c1cccc(C(=O)c2ccccc2)c1)N1CCCCC1CN1CCCCC1 (stereo not drawn) [Example 4D, 1-[1-(3-Benzoylphenyl)ethyl]-2-(1-piperidinylmethyl)piperidine dihydrochloride monohydrate]	27	59	–	–	–	inhibition in vivo at 324 µmol/kg [3]: 56%
CC(CN1CCC(N)CC1)c1ccc(C(=O)c2ccccc2)cc1.Cl.Cl (stereo not drawn) [Example 5A, 1-[2-(4-benzoylphenyl)propyl]-4-aminopiperidine-dihydrochloride]	–	–	–	–	42	AED40 (Approximate Effective Dose resulting in 40% inhibition of bronchoconstriction) [6]: Inac.
CC(CN1CCC(NC(=O)C2CC2)CC1)c1ccc(C(=O)c2ccccc2)cc1 (stereo not drawn) [Example 6A, 1-[2-(4-benzoylphenyl)propyl]-4-cyclopropanecarbonylaminopiperidine]	72	77	–	Weak	16	ED40 [6]: 7.3 mg/kg; AEC50 (Approximate Effective Concentration resulting in 50% inhibition of allergic release of histamine) (human basophils): Inac.
CCCC(=O)NC1CCN(CC(C)c2ccc(C(=O)c3ccccc3)cc2)CC1 (stereo not drawn) [Example 6B, 1-[2-(4-Benzoylphenyl)propyl]-4-butyrylaminopiperidine]	54	63	–	Inac.	16	ED40 [6]: 2 mg/kg; EC50 (human basophils): > 100000 nM; inhibition in vivo at 40 µmol/kg [3]: 38%
CC(CN1CCC(NC(=O)c2ccccc2)CC1)c1ccc(C(=O)c2ccccc2)cc1 (stereo not drawn) [Example 6C, 1-[2-(4-Benzoylphenyl)propyl]-4-benzoylaminopiperidine]	50	57	51	–	23	–
CCC(=O)NC1CCN(CC(C)c2ccc(C(=O)c3ccccc3)cc2)CC1 (stereo not drawn) [Example 6E, 1-[2-(4-Benzoylphenyl)propyl]-4-propionylaminopiperidine]	–	–	–	–	–	ED40 [6]: 30 mg/kg
CC(CN1CCC(NC(=O)C2CCCCC2)CC1)c1ccc(C(=O)c2ccccc2)cc1 (stereo not drawn) [Example 6I, 1-[2-(4-Benzoylphenyl)propyl]-4-cyclohexanecarbonylaminopiperidine]	–	–	–	–	–	Ba (active or inactive) [7]: Active; EC50 [8]: 2600 nM
CC(=O)NC1CCN(CC(C)c2ccc(C(O)c3ccccc3)cc2)CC1 (stereo not drawn) [Example 7, 1-[2-(α-hydroxy-4-benzylphenyl)propyl]-4-acetylaminopiperidine]	–	–	–	–	–	Ba (active or inactive) [7]: Slightly Active; EC50 [8]: 2900 nM
